We go through two molecules from ChEMBL document CHEMBL5728197, “KDM1A inhibitors for the treatment of disease” (2021).

In the test the target is Lysine-specific histone demethylase 1A (Homo sapiens, UniProt O60341). Kind of test: Biological Activity Assay: Assaying the inhibition of KDM1A can be determined in vitro, in cultured cells, and in animals. There are a variety of spectrophotometric methods to detect the results of demethylation of methylated lysines, viz., detecting the products of KDM1A demethylase oxidative activity on a peptide fragment of at least 18 amino acid representing the N-terminus of the histone H3 substrate that contains a monomethyl at the fourth lysine residue. Hydrogen peroxide, one product of the KDM1A demethylase reaction, reacts with horseradish peroxidase and dihydroxyphenoxazine (ADHP) to produce the fluorescent compound resorufin (excitation=530-560 nm:emission=590 nm). The KDM1A demethylase enzyme activity can obtained from mammalian cells or tissues expressing KDM1A from an endogenous or recombinant gene and purified or assayed from a whole cell extract. These methods can be used to determine the concentration of the disclosed compounds can inhibit fifty percent of the enzyme activity (IC50).

Each structure is given as a SMILES string.

For `COc1ccc([C@@H]2C[C@H]2NC(=O)COC[C@H](NC(=O)c2ccc(F)cc2)C(=O)N2CCOCC2)cc1`, the IC50 was over 1000 nM.

As for `O=C(N[C@@H](COCCN[C@@H]1C[C@H]1c1ccc(F)cc1)C(=O)N1CCOCC1)c1ccc(F)cc1`, the IC50 is under 1000 nM.
